pIC50: −log10 of the molar value.
Tests used:
ACE = target: T1, ACE (Rattus norvegicus, UniProt P47820); assay: ACE inhibition: hydrolysis of the ippuril-glycil-glycine artificial substrate by the ACE contained in rat serum; format: biochemical
T1 construct: by the ACE contained in the rat serum; from tissue; host or cells: rat serum
T1 sequence (P47820 36-1238 limits assumed): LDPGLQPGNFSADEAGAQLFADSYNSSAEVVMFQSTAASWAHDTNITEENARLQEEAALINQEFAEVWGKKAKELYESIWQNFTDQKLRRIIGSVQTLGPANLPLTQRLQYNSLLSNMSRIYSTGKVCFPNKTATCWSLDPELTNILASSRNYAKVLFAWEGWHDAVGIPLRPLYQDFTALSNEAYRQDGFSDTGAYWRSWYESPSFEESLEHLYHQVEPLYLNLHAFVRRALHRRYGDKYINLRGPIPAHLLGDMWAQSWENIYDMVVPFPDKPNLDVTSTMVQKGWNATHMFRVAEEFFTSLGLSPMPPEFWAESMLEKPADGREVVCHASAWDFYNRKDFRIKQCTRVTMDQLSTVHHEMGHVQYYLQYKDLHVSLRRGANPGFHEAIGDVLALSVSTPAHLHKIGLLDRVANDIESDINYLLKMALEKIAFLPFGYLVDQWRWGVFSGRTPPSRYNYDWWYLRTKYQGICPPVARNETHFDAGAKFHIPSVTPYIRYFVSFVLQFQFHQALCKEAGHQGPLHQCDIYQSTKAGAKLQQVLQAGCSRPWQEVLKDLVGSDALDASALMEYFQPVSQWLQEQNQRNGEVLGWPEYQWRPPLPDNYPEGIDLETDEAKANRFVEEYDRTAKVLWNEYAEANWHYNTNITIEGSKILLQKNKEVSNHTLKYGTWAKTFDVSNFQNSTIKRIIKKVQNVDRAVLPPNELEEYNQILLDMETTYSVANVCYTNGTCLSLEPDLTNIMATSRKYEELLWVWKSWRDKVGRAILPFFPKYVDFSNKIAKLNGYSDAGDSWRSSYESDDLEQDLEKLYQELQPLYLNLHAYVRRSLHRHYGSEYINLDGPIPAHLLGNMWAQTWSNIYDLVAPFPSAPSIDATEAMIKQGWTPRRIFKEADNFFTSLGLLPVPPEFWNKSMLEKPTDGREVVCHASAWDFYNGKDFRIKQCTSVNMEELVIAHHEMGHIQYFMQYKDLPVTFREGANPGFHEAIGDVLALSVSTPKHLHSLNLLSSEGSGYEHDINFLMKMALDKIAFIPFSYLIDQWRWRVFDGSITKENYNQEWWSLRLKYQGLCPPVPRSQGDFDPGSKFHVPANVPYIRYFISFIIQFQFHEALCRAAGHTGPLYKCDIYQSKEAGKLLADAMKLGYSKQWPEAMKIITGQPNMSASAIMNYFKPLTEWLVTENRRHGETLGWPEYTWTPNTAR
Text: The IC50 values have been calculated by the regression analysis of the linear part of the log dose/percent inhibition curve.

[1] = test system: blood pressure increases induced by angiotensin I; assay: Antihypertensive activity i.v. in the anaesthetized ganglion-blocked rat (inhibition of blood pressure increases induced by repeated i.v. injections of angiotensin I); format: in vivo
Method: Dose-dependent antihypertensive activity of selected compounds was calculated after intravenous administration to the anaesthetized ganglion-blocked rat. […] Half-lives (t1/2) of the antihypertensive action were also calculated and reported.

[2] = test system: pressure answer to angiotensin II; assay: Influence on the pressure answer to angiotensin II; format: in vivo; settings: up to the dose of 1 mg kg i.v.

Question: `O=C(CNC(=O)[C@H]1CCCC[C@H]1C(=O)O)NO` (relative stereo) [Example 1] was tested. Which pIC50 (ACE) did it give?
Answer: The pIC50 was 5.80.

Question: Which results are given for `CCN(CC(=O)NO)C(=O)[C@@H]1CCCC[C@H]1C(=O)O` (relative stereo) [Example 2, Trans-2[[N-[2-(hydroxyamino)-2-oxoethyl]-N-ethylamino]carbonyl]- -cyclohexanecarboxylic acid]?
Answer: pIC50 (ACE): 8.10; Antihypertensive activity t1/2 (half-life of the antihypertensive action) [1]: 14 min

Question: With `CN(CC(=O)NO)C(=O)[C@H]1CCCC[C@H]1C(=O)O` (relative stereo) [Example 4, cis-2[[N-[2-(hydroxyamino)-2-oxoethyl]-N-methylamino]carbonyl]-cyclohexanecarboxylic acid] as the compound, how does the pIC50 (ACE) read?
Answer: The pIC50 was 8.22.

Question: What about the “Antihypertensive activity t1/2 (half-life of the antihypertensive action)” value [1] of the same compound?
Answer: The value was 15 min.

Question: And the “influence on the pressure answer to angiotensin II” value [2]?
Answer: The value was “has not influenced”.

Question: `CN(CC(=O)NO)C(=O)[C@@H]1CCC[C@H]1C(=O)O` (relative stereo) [Example 6, Trans-2[[N-[2-(hydroxyamino)-2-oxoethyl]-N-methylamino]carbonyl]cyclopentanecarboxylic acid] was tested. Which pIC50 (ACE) did it give?
Answer: Its pIC50 is 6.14.

Question: With `CC(=O)ON(C(C)=O)C(=O)CN(C)C(=O)[C@H]1CCCC[C@H]1C(=O)O` (relative stereo) [Example 14, Cis-2-[[N-[2-(N'-acetoxy-N'-acetylamino)-2-oxoethyl]-N-methyl-amino]carbonyl]cyclohexanecarboxylic acid] as the compound, how does the pIC50 (ACE) read?
Answer: The pIC50 was 6.55.

Question: And the ED50 ([1]; iv, 1 min, angiotensin I-induced pressure increase, at time of maximum effect (1 min))?
Answer: Its ED50 is 1.5 mg/kg.

Question: With `O=C(NO)C(Cc1ccccc1)NC(=O)[C@H]1CCCC[C@H]1C(=O)O` (relative stereo) [Example 18, Cis-2[[N-[1-benzyl-2-(hydroxyamino)-2-oxoethyl]amino]carbonyl]-cyclohexane carboxylic acid] as the compound, how does the pIC50 (ACE) read?
Answer: Its pIC50 is 6.40.

Question: With `O=C(NO)C(CCc1ccccc1)NC(=O)[C@H]1CCCC[C@H]1C(=O)O` (relative stereo) [Example 19, Cis-2[[N-[1-(2-phenylethyl)-2-(hydroxyamino)-2-oxoethyl]amino]carbonyl]cyclohexanecarboxylic acid] as the compound, how does the pIC50 (ACE) read?
Answer: The pIC50 was 4.55.

Question: How did the pIC50 (ACE) turn out when `O=C(NO)C(CCCc1ccccc1)NC(=O)[C@H]1CCCC[C@H]1C(=O)O` (relative stereo) [Example 20, Cis-2[[N-[1-(3-phenylpropyl)-2-(hydroxyamino)-2-oxoethyl]amino]carbonyl]-cyclohexanecarboxylic acid] was run?
Answer: Its pIC50 is 5.00.

Question: Which results are given for `CN(CC(=O)NO)C(=O)[C@@H]1CCCC[C@H]1C(=O)O` (relative stereo) [Example 21, Trans-2-[[N-[2-(hydroxyamino)-2-oxoethyl]-N-methylamino]carbonyl]-cyclohexanecarboxylic acid]?
Answer: pIC50 (ACE): 7.70; Antihypertensive activity t1/2 (half-life of the antihypertensive action) [1]: 15 min

Question: How did the pIC50 (ACE) turn out when `CCN(CC(=O)NO)C(=O)[C@H]1CCCC[C@H]1C(=O)O` (relative stereo) [Example 26, Cis-2[[N-[2-(hydroxyamino)-2-oxoethyl]-N-ethylamino]carbonyl]cyclohexane-carboxylic acid] was run?
Answer: Its pIC50 is 7.60.

Question: How did the pIC50 (ACE) turn out when `CN(C(=O)[C@H]1CCCC[C@H]1C(=O)O)C(Cc1ccccc1)C(=O)NO` (relative stereo) [Example 29, Cis-2[[N-[1-benzyl-2-(hydroxyamino)-2-oxoethyl]-N-methylamino]carbonyl]-cyclohexanecarboxylic acid] was run?
Answer: Its pIC50 is 7.52.

Question: `CN(C(=O)[C@@H]1CCCC[C@H]1C(=O)O)C(Cc1ccccc1)C(=O)NO` (relative stereo) [Example 30, Trans-2[[N-[1-benzyl-2-(hydroxyamino)-2-oxoethyl]-N-methylamino]carbonyl]-cyclohexanecarboxylic acid] was tested. Which pIC50 (ACE) did it give?
Answer: The pIC50 was 7.52.

Question: With `CN(C(=O)[C@H]1CCCC[C@H]1C(=O)O)C(CCCc1ccccc1)C(=O)NO` (relative stereo) [Example 32, Cis-2[[N-[1-(3-phenylpropyl)-2-(hydroxyamino)-2-oxoethyl]-N-methylamino]carbonyl]-cyclohexanecarboxylic acid] as the compound, how does the pIC50 (ACE) read?
Answer: The pIC50 was 6.87.

Question: `O=C(NO)C(CNC(=O)[C@H]1CCCC[C@H]1C(=O)O)Cc1ccccc1` (stereo partly shown) [Example 3] was tested. Which pIC50 (ACE) did it give?
Answer: The pIC50 was 5.46.

Question: How did the pIC50 (ACE) turn out when `CCN(CC(=O)NO)C(=O)[C@@H]1CCCC[C@H]1C(=O)O` [Example 7, trans-(1R,2R)-2[[N-[2-(hydroxyamino)-2-oxoethyl]N-ethylamino]carbonyl]-cyclohexanecarboxylic acid] was run?
Answer: Its pIC50 is 8.12.

Question: How did the pIC50 (ACE) turn out when `CN(C(=O)[C@H]1CCCC[C@H]1C(=O)O)C(CCc1ccccc1)C(=O)NO` (stereo partly drawn) [Example 8, Cis-2[[N-[1-(2-phenylethyl)-2-(hydrxyamino)-2-oxoethyl]-N-methylamino]carbonyl]-cyclohexanecarboxylic acid] was run?
Answer: Its pIC50 is 7.21.

Question: With `CN(CC(=O)NO)C(=O)[C@@H]1CCCC[C@@H]1C(=O)O` [Example 9, Cis-(1S,2R)-2[[N-[2-(hydroxyamino)-2-oxoethyl]-N-methylamino]carbonyl]-cyclohexanecarboxylic acid] as the compound, how does the pIC50 (ACE) read?
Answer: Its pIC50 is 8.46.

Source: US5095137A, “Amides of cyclomethylen-1,2-bicarboxylic acids having therapeutical activity” (Laboratori Guidotti SpA, priority 1988, dated 1992)
